According to patent EP0603240B1, “SAFENING HERBICIDAL PYRAZOLYLSULFONYLUREAS” (priority 1991, dated 1993):

Assays:
Format in all cases: in vivo
[1] = test system: barnyardgrass (Echinochloa crusgalli); experiment: Example 3, Procedure I: antidotes against Herbicide No. 1
Description: (§1) Containers were filled and compacted with a fumigated silt loam top soil to a depth of about 1.3 cm from the top of the container. A first container was designated as an untreated control, a second container was designated as a herbicide control, and a third container was designated as a herbicide + antidote test container. Each of the containers was seeded with a crop species. A measured amount of herbicide dispersed or dissolved in acetone was applied to a measured quantity of soil. To this same quantity of soil treated with herbicide, there was added a measured amount of antidote dispersed or dissolved in acetone. The quantity of soil treated with the herbicide and antidote was thoroughly mixed to incorporate the herbicide and antidote in the soil uniformly. The seed bed in the third container of soil was covered with the soil treated with the herbicide and antidote and the container was leveled. For each test series, the seed beds of the first and second containers were likewise covered by soil layers. the cover layer of the first container was not treated with herbicide or antidote.
(§2) The containers were then placed on a bench in a greenhouse and sub-irrigated as required for the duration of the test. […] Plant response is measured in terms of percent injury. Antidote efficacy is indicated as the difference in plant injury by the herbicide(s) without the antidote and with the antidote.
(§3) In the series of greenhouse tests described below, for routine screening purposes the herbicide/antidote compositions were tested in crop/weed combinations involving corn as the crop and either or both of the weeds barnyardgrass (Echinochloa crusgalli), a monocotyledonous weed, and velvetleaf (Abutilon theophrasti), a dicotyledonous weed. In the tables below, these weeds are indicated by the symbols "BYG" and "VL", respectively.
This example details the results of tests with Antidote Nos. 12, 15 and 16 to safen Herbicide No. 1 over application rates ranging from 4.48 kg/ha down to 0.56 kg/ha, in corn in the presence of barnyardgrass. Procedure I described above was used in these tests.

[2] = test system: barnyardgrass (Echinochloa crusgalli); experiment: Example 4, Procedure I: Antidote Nos. 15 and 16 against Herbicide No. 1
Description: as §1, §2, §3
(§4) This example describes tests with Antidote Nos. 15 and 16 to safen Herbicide No. 1 according to Procedure I using corn and the weeds barnyardgrass and velvetleaf as the test plants.

[3] = test system: velvetleaf (Abutilon theophrasti); experiment: as above
Description: as §1, §2, §3, §4

corn [4] = experiment: Example 16, Procedure II: Herbicide No. 1 + EPTC (No. 4, EPTAM) with antidotes
Description: as §1, §2
(§5) This procedure is the same as Procedure I, but modified in the manner that after incorporation of the chemicals (herbicide and antidote) the containers with the covered seedbed were treated with an initial overhead irrigation equivalent to 0.6 cm rainfall, then subsequently sub-irrigated as required on greenhouse benches.
The test procedure used in these experiments was that of Procedure II described above. The antidotes were applied to a soil cover layer by pipet after spraying the herbicides onto the soil, followed by incorporation and overhead irrigation. […]

corn [5] = experiment: Example 26, field trials, preemergence surface application (PRE): corn growth reduction
Description: In order to better understand and to confirm the results of greenhouse tests with herbicidal compositions comprising representative compounds according to Formula I and an antidote with and without a co-herbicide, a large number of field trials were conducted. This example provides a summary of those field trials.
The primary purpose of the field trials summarized herein was to ascertain the amount of corn injury caused by a compound according to Formula I. viz. Herbicide No. 1, with and without a co-herbicide of the α-chloroacetanilide class, viz., Herbicide Nos. 6 and 7, and the extent that any corn injury could be safened by a dichloroacetamide antidotal compound, viz., Antidote No. 15.
Corn injury is generally expressed, in broad terms, in stand reduction, growth reduction, malformed plants and other more specific effects. For purposes of the summary here, the results of a plurality of field trials are expressed in terms of growth reduction (GR), i.e., a significant reduction in plant height of the corn stand. A common criteria for commercially-acceptable corn injury is an amount equal to or less than 10% malformed plants or stand reduction and for present reporting purposes, no greater than about 15% growth reduction. The corn injury/safening described for these field trials refers to commercially-unacceptable to commercially-acceptable performance.
In the field trials from a wide distribution of trial locations, soil types (all having in excess of 2% organic matter), climatic effects, etc., the test chemicals were applied as tank mixes in various modes of application, i.e., pre-plant incorporation (PPI) and preemergence surface application (PRE). Test plots were small plots with three replications in a randomized complete block design. Observations were made and recorded in a period of from 31-50 days after treatment.

[6] = test system: velvetleaf (Abutilon theophrasti); experiment: Example 20, Procedure II: Herbicide No. 1 + EPTC or ERADICANE EXTRA with Antidote Nos. 5 and 15
Description: as §1, §2, §5, §3
This example describes experiments designed to test two generally efficacious antidotal compounds, i.e., Antidote Nos. 5 and 15, against the herbicidal action of the sulfonylurea compound, Herbicide No. 1, and the commercial herbicides EPTC (Herbicide No. 4) and ERADICANE® EXTRA (EPTC + R-29148, Antidote No. 5). Procedure II above was used in conducting these experiments. Formulations of EPTC and ERADICANE EXTRA were applied onto soil cover layers (to be applied over seed beds), followed by sequential pipetting of Herbicide No. 1 and Antidote No. 15. The soil was mixed to homogeneity and spread over the seed beds followed by 0.6 cm of overhead irrigation.

[7] = Herb. No. 1 4.48 kg/ha + antidote 0.56 kg/ha
[8] = Herb. No. 1 4.48 kg/ha + antidote 2.24 kg/ha
[9] = Herb. No. 1 6.72 kg/ha + antidote 0.56 kg/ha
[10] = Herb. No. 1 6.72 kg/ha + antidote 2.24 kg/ha
[11] = Herb. No. 1 4.48 kg/ha, no antidote, average of two replicates
[12] = Herb. No. 1 6.72 kg/ha, no antidote, average of two replicates
[13] = Herbicide No.1 0.56 kg/ha alone

SMILES: CC1(C)OC(c2ccco2)CN1C(=O)C(Cl)Cl (centres unmarked) [compound 15]
- % Injury BYG ([1]; Herb. No. 1 0.56 kg/ha + antidote 0.56 kg/ha): 50%
- % Injury BYG ([1]; Herb. No. 1 0.56 kg/ha + antidote 2.24 kg/ha): 35%
- % Injury BYG ([1]; Herb. No. 1 0.56 kg/ha + antidote 8.96 kg/ha): 10%
- % Injury BYG ([1]; Herb. No. 1 1.12 kg/ha + antidote 0.56 kg/ha): 75%
- % Injury BYG ([1]; Herb. No. 1 1.12 kg/ha + antidote 2.24 kg/ha): 60%
- % Injury BYG ([1]; Herb. No. 1 1.12 kg/ha + antidote 8.96 kg/ha): 60%
- % Injury BYG ([1]; Herb. No. 1 2.24 kg/ha + antidote 0.56 kg/ha): 60%
- % Injury BYG ([1]; Herb. No. 1 2.24 kg/ha + antidote 2.24 kg/ha): 70%
- % Injury BYG ([1]; Herb. No. 1 2.24 kg/ha + antidote 8.96 kg/ha): 50%
- % Injury BYG [1, 7]: 75%
- % Injury BYG [1, 8]: 70%
- % Injury BYG ([1]; Herb. No. 1 4.48 kg/ha + antidote 8.96 kg/ha): 80%
- % Injury BYG ([1]; antidote 8.96 kg/ha alone, no herbicide): 0%
- % Injury BYG [2, 7]: 95%
- % Injury BYG [2, 8]: 90%
- % Injury BYG [2, 9]: 90%
- % Injury BYG [2, 10]: 90%
- % Injury VL [3, 7]: 95%
- % Injury VL [3, 8]: 95%
- % Injury VL [3, 9]: 95%
- % Injury VL [3, 10]: 95%
- % Injury Corn (corn [4]; Herbicide No.1 1.12 kg/ha + EPTAM 6.72 kg/ha, antidote 2.24 kg/ha): 5%

SMILES: COC(=O)c1c(Cl)nn(C)c1S(=O)(=O)NC(=O)Nc1nc(OC)cc(OC)n1 [Herbicide No. 1]
- % Injury BYG ([1]; Herb. No. 1 0.56 kg/ha, no antidote): 50%
- % Injury BYG ([1]; Herb. No. 1 1.12 kg/ha, no antidote): 70%
- % Injury BYG ([1]; Herb. No. 1 2.24 kg/ha, no antidote): 70%
- % Injury BYG ([1]; Herb. No. 1 4.48 kg/ha, no antidote): 75%
- % Injury BYG [2, 11]: 80%
- % Injury BYG [2, 12]: 90%
- % Injury VL [3, 11]: 90%
- % Injury VL [3, 12]: 90%
- corn growth reduction (GR) (corn [5]; Herbicide No. 1 0.07 kg/ha + acetochlor, no antidote): 9.8%
- corn growth reduction (GR) (corn [5]; Herbicide No. 1 0.14 kg/ha + acetochlor, no antidote): 13.4%
- corn growth reduction (GR) (corn [5]; Herbicide No. 1 0.28 kg/ha + acetochlor, no antidote): 20.3%

SMILES: COC(=O)c1c(Cl)nn(C)c1S(=O)(=O)NC(=O)Nc1nc(OC)cc(OC)n1 [No.1]
- % Injury Corn (corn [4]; [13]): 10%
- % Injury Corn (corn [4]; Herbicide No.1 1.12 kg/ha alone): 15%
- % Injury VL ([6]; Herbicide No.1 0.56 kg/ha + ERADICANE EXTRA 2.24 kg/ha): 95%
- % Injury VL ([6]; Herbicide No.1 0.56 kg/ha + ERADICANE EXTRA 4.48 kg/ha): 90%
- % Injury VL ([6]; Herbicide No.1 0.56 kg/ha + ERADICANE EXTRA 6.72 kg/ha): 100%
- % Injury VL ([6]; Herbicide No.1 0.56 kg/ha + No. 4 2.24 kg/ha, no antidote): 95%
- % Injury VL ([6]; Herbicide No.1 0.56 kg/ha + No. 4 4.48 kg/ha, no antidote): 90%
- % Injury VL ([6]; Herbicide No.1 0.56 kg/ha + No. 4 6.72 kg/ha, no antidote): 100%
- % Injury VL [6, 13]: 95%
- % Injury VL ([6]; Herbicide No.1 2.24 kg/ha + ERADICANE EXTRA 2.24 kg/ha): 100%
- % Injury VL ([6]; Herbicide No.1 2.24 kg/ha + ERADICANE EXTRA 4.48 kg/ha): 100%
- % Injury VL ([6]; Herbicide No.1 2.24 kg/ha + ERADICANE EXTRA 6.72 kg/ha): 95%
- % Injury VL ([6]; Herbicide No.1 2.24 kg/ha + No. 4 2.24 kg/ha, no antidote): 95%
- % Injury VL ([6]; Herbicide No.1 2.24 kg/ha + No. 4 4.48 kg/ha, no antidote): 95%
- % Injury VL ([6]; Herbicide No.1 2.24 kg/ha + No. 4 6.72 kg/ha, no antidote): 100%
- % Injury VL ([6]; Herbicide No.1 2.24 kg/ha alone): 100%

SMILES: CC1(C)OC(c2ccco2)CN1C(=O)C(Cl)Cl (centres unmarked) [Antidote No. 15, Oxazolidine, 3-(dichloroacetyl)-5-(2-furanyl)-2,2-dimethyl]
- % Injury VL ([6]; Herbicide No.1 0.56 kg/ha + No. 4 2.24 kg/ha, Antidote No. 15 0.18 kg/ha): 90%
- % Injury VL ([6]; Herbicide No.1 0.56 kg/ha + No. 4 4.48 kg/ha, Antidote No. 15 0.35 kg/ha): 95%
- % Injury VL ([6]; Herbicide No.1 0.56 kg/ha + No. 4 6.78 kg/ha, Antidote No. 15 0.56 kg/ha): 95%
- % Injury VL ([6]; Herbicide No.1 2.24 kg/ha + No. 4 2.24 kg/ha, Antidote No. 15 0.18 kg/ha): 95%
- % Injury VL ([6]; Herbicide No.1 2.24 kg/ha + No. 4 4.48 kg/ha, Antidote No. 15 0.35 kg/ha): 95%
- % Injury VL ([6]; Herbicide No.1 2.24 kg/ha + No. 4 6.78 kg/ha, Antidote No. 15 0.56 kg/ha): 100%
- crop injury, assessment in words (corn [5]; Antidote No. 15 to Herbicide No. 1 ratio increased to 3:1): reduced crop injury even further
- corn growth reduction (GR) (corn [5]; Herbicide No. 1 0.07 kg/ha + acetochlor + Antidote No. 15): 8.7%
- corn growth reduction (GR) (corn [5]; Herbicide No. 1 0.14 kg/ha + acetochlor + Antidote No. 15): 8.2%
- corn growth reduction (GR) (corn [5]; Herbicide No. 1 0.28 kg/ha + acetochlor + Antidote No. 15): 14.5%
